Structure (SMILES): CCCCOc1ccc(Cl)cc1C(=O)N[C@H]1C[C@@H]1c1ccc(-c2ccc(C(=O)O)cc2)cc1 [Compound 108, 4′-{(1R,2S)-2-[(2-butoxy-5-chlorobenzoyl)amino]cyclopropyl}-biphenyl-4-carboxylic acid]
- melting point: 218 to 222 °C
